Source: patent US8883965B2, “Compounds” (Ferring B.V., priority 2006, dated 2014)
Positions of bridges follow the written chain, without caps; N, C: chain ends. Non-standard residues stand in square brackets, D forms with d. Residues, ends and D or L forms follow the SMILES beside them. Ala(cPent) = N[C@@H](CC1CCCC1)C(=O)O; Orn(iPr) = CC(C)NCCC[C@H](N)C(=O)O; Cha = N[C@@H](CC1CCCCC1)C(=O)O; Orn = NCCC[C@H](N)C(=O)O; Dab = NCC[C@H](N)C(=O)O; Ac4c = NC1(C(=O)O)CCC1

biological target: T1, hV1a receptor (Homo sapiens, UniProt P37288); test: In vitro receptor assay: transcriptional reporter (luciferase) assay of agonist activity in HEK-293 cells transiently transfected with hV1a receptor; assay type: cell-based; conditions: hV1a receptor in HEK-293 cells, 5 hours exposure, geometric mean of at least three independent experiments, nanomol/L, read-out: EC50 (median effective concentration)
T1 construct: expressed in transfected cells; host or cells: HEK-293
Method: Agonist activity of compounds on the hV1a receptor was determined in a transcriptional reporter assay by transiently transfecting a hV1a receptor expression DNA into HEK-293 cells in concert with a reporter DNA containing intracellular calcium responsive promoter elements regulating expression of firefly luciferase. See Boss, V., Talpade, D. J., Murphy, T. J. J. Biol. Chem. 1996, May 3; 271(18), 10429-10432 for further guidance on this assay.
The EC50 value given is the geometric mean expressed in nanomol/L (nM).

T1 sequence (P37288 whole entry): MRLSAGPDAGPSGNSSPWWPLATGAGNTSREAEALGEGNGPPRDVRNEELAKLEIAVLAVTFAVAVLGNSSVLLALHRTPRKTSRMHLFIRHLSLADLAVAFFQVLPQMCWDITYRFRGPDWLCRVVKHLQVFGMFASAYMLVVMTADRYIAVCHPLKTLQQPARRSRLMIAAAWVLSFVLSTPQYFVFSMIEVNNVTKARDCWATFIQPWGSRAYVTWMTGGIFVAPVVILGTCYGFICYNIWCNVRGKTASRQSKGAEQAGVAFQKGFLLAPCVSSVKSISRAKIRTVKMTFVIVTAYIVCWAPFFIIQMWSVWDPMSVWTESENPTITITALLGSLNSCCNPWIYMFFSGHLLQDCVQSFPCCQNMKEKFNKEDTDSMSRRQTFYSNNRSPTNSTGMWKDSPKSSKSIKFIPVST

Row | Compound | EC50
1 | CC[C@H](C)[C@@H]1NC(=O)C2(CCC2)NC(=O)[C@@H](N)CSSC[C@@H](C(=O)N2CCC[C@H]2C(=O)N[C@@H](CCN)C(=O)NCC(N)=O)NC(=O)[C@H](CC(N)=O)NC(=O)[C@H](CCC(N)=O)NC1=O [compound 3, [AcBuc^2, Dbu^8]VT] (H-C[Ac4c]IQNCP[Dab]G-NH2; disulfide 1-6) | 0.94 nM
2 | CC[C@H](C)[C@@H]1NC(=O)[C@H](CC2CCCCC2)NC(=O)[C@@H](N)CSSC[C@@H](C(=O)N2CCC[C@H]2C(=O)N[C@@H](CCN)C(=O)NCC(N)=O)NC(=O)[C@H](CC(N)=O)NC(=O)[C@H](CCC(N)=O)NC1=O [compound 1] (H-C[Cha]IQNCP[Dab]G-NH2; disulfide 1-6; N-terminus and C-terminus assumed) | 0.27 nM
3 | CC[C@H](C)[C@@H]1NC(=O)[C@H](CC2CCCC2)NC(=O)[C@@H](N)CSSC[C@@H](C(=O)N2CCC[C@H]2C(=O)N[C@@H](CCN)C(=O)NCC(N)=O)NC(=O)[C@H](CC(N)=O)NC(=O)[C@H](CC(N)=O)NC1=O [compound 10] (H-C[Ala(cPent)]INNCP[Dab]G-NH2; disulfide 1-6) | 17.8 nM
4 | CC[C@H](C)[C@@H]1NC(=O)[C@H](CC2CCCCC2)NC(=O)[C@@H](N)CSSC[C@@H](C(=O)N2CCC[C@H]2C(=O)N[C@@H](CCCN)C(=O)NCC(N)=O)NC(=O)[C@H](CC(N)=O)NC(=O)[C@H](CC(N)=O)NC1=O [compound 11] (H-C[Cha]INNCP[Orn]G-NH2; disulfide 1-6) | 9.93 nM
5 | CC[C@H](C)[C@@H]1NC(=O)[C@H](CC2CCCCC2)NC(=O)[C@@H](N)CSSC[C@@H](C(=O)N2CCC[C@H]2C(=O)N[C@@H](CCCNC(C)C)C(=O)NCC(N)=O)NC(=O)[C@H](CC(N)=O)NC(=O)[C@H](CC(N)=O)NC1=O [compound 4, [Cha^2, Asn^4, Orn(i-Pr)^6]VT] (H-C[Cha]INNCP[Orn(iPr)]G-NH2; disulfide 1-6) | 0.75 nM
6 | CC[C@H](C)[C@@H]1NC(=O)[C@H](CC2CCCC2)NC(=O)[C@@H](N)CSSC[C@@H](C(=O)N2CCC[C@H]2C(=O)N[C@@H](CCN)C(=O)NCC(N)=O)NC(=O)[C@H](CC(N)=O)NC(=O)[C@H](CCC(N)=O)NC1=O [compound 2] (H-C[Ala(cPent)]IQNCP[Dab]G-NH2; disulfide 1-6) | 0.8 nM
7 | NCCCC[C@H](NC(=O)[C@@H]1CCCN1C(=O)[C@@H]1CSSC[C@H](NC(=O)CNC(=O)CNC(=O)CN)C(=O)N[C@@H](Cc2ccc(O)cc2)C(=O)N[C@@H](Cc2ccccc2)C(=O)N[C@@H](CCC(N)=O)C(=O)N[C@@H](CC(N)=O)C(=O)N1)C(=O)NCC(N)=O [terlipressin, reference compound] (H-GGGCYFQNCPKG-NH2; disulfide 4-9) | 82.1 nM
